For one experiment, the system named is anesthetized dog. Put plainly: Hemodynamic parameters in the anesthetized dog after intravenous infusion. It is filed as in vivo. As to conditions: for effect on the heart rate: doses of 1, 2.5 and 5 μg/kg/min, in words; for Average arterial pressure / Heart rate / Renal art. flow / Renal resistances: measured 5 minutes after infusion, average ± SE. From the text: Dopamine and epinine have been compared after intravenous infusion at different doses in the anesthetized dog.

Experiment [1] has as its system electrically stimulated median arteria of rabbit ear. Put plainly: Inhibition of contraction induced by electrical stimulation, median arteria of rabbit ear. As to conditions: for IC50: Oryctolagus cuniculus, concentrations between 0.01 and 10 μM, read-out: ED50 in inhibiting the contraction induced by electrical stimulation.
The conditions of experiment [2]: less potent than adrenaline; cited from earlier work.

Consider 2 molecules from patent publication US4628064A, “Epinine and the therapeutic use thereof” (SIMES, Societa Italiana Medicinali e Sintetici S.p.A., priority 1983, dated 1986).

As for `NCCc1ccc(O)c(O)c1` [dopamine, reference compound], the “effect on the heart rate” value with anesthetized dog is on record as “slightly increased”. In the experiment with anesthetized dog (infusion 1.00 μg/kg/min), this molecule registered an Average arterial pressure of 106 ± 7 mmHg, a Heart rate of 144 ± 10, a Renal art. flow of 127 ± 20.8 mL/min and a Renal resistances of 1.120 ± 0.149 mmHg/ml/min. Further, in the experiment with anesthetized dog (infusion 2.50 μg/kg/min), the Average arterial pressure was found to be 105 ± 6 mmHg, the Heart rate is 146 ± 8, the Renal art. flow is 132 ± 21.0 mL/min and the Renal resistances turned out to be 1.053 ± 0.146 mmHg/ml/min. Further, in the experiment with anesthetized dog (infusion 5.00 μg/kg/min), the Average arterial pressure worked out at 109 ± 6 mmHg, the Heart rate is 151 ± 8, the Renal art. flow was found to be 122.9 ± 19.8 mL/min and the Renal resistances was 1.136 ± 0.261 mmHg/ml/min. Further, in experiment [1], the IC50 came to 2390 nM.
Take `CNCCc1ccc(O)c(O)c1` [epinine, N-methyl-3,4-dihydroxyphenethylamine]: in the experiment on anesthetized dog, the “effect on the heart rate” value is given as “moderate but significant reduction”. In the experiment with anesthetized dog (infusion 0.50 μg/kg/min), the Average arterial pressure is reported as 136 ± 9 mmHg, the Heart rate was 164 ± 10, the Renal art. flow was determined as 153.5 ± 18.5 mL/min and the Renal resistances is 0.990 ± 0.145 mmHg/ml/min. In the experiment with anesthetized dog (infusion 1.00 μg/kg/min), this molecule yielded an Average arterial pressure of 136 ± 8 mmHg, a Heart rate of 161 ± 11, a Renal art. flow of 157.5 ± 28.1 mL/min and a Renal resistances of 0.971 ± 0.185 mmHg/ml/min. In the experiment on anesthetized dog (infusion 2.50 μg/kg/min), this molecule had an Average arterial pressure of 135 ± 7 mmHg, a Heart rate of 156 ± 12, a Renal art. flow of 159.8 ± 29.3 mL/min and a Renal resistances of 0.954 ± 0.183 mmHg/ml/min. For the same molecule, in the experiment on anesthetized dog (infusion 5.00 μg/kg/min), the Average arterial pressure was 139 ± 6 mmHg, the Heart rate was found to be 149 ± 11, the Renal art. flow was found to be 164.3 ± 29.7 mL/min and the Renal resistances was 0.965 ± 0.181 mmHg/ml/min. In addition, the IC50 in experiment [1] is 77 nM. Besides, in experiment [1] (higher than that of dopamine), the “activity relative to dopamine (presynaptic DA2 receptors)” value is given as 30 times. In addition, the “pressor potency relative to adrenaline” value in experiment [2] is listed as “about ten”.
